Assay [1] deals with T1, type 1 human 5α-reductase (HRED1) (Homo sapiens, UniProt P18405).
T1 sequence (P18405 1-259): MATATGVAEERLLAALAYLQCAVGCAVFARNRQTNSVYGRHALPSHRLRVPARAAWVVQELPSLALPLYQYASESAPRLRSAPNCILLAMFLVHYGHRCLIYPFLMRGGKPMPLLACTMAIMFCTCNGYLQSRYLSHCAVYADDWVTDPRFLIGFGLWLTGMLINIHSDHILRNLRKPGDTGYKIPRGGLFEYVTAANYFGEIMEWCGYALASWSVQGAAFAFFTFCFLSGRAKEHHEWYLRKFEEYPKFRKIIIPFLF
The assay is described as follows: Cell free assay of 5α-reductase, microsomes of rat 1A cells expressing type 1 isoenzyme (HRED1).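 Note: microsomes from rat 1A cells expressing human type 1 5α-reductase, conversion of radiolabeled testosterone to dihydrotestosterone quantified by thin layer chromatography with radioanalytic scanning.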 The assay is classed as biochemical. Further details: expressed in transfected cells; host or cells: rat 1A cells infected with pMV7 retrovirus; microsomes.

In assay [2] the test system is human prostate and breast tumors. The assay is described as follows: Human prostate and breast tumors in animal models. Type of assay: in vivo, nude mice. The procedure:
A compound of this invention can be used to treat breast or prostate cancer. […] By way of example, human prostate cancer PC-3 cells are grown in culture medium. About one million cells are injected into male nude mice and the growth of tumors followed. Within two weeks, the tumor grows to about 100 mm^3. Three tumor bearing mice are injected with a test compound each day.

The target of assay [3] is T1, type 1 human 5α-reductase (HRED1). The assay is described as follows: Whole cell assay of 5α-reductase, type 1 isoenzyme.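 Note: intact rat 1A cells engineered to express the human type 1 5α-reductase isozyme serve as the enzyme source.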 The assay is classed as cell-based. Further details: expressed in transfected cells; host or cells: rat 1A cells infected with pMV7 retrovirus. As to conditions: whole cell assay.
Assay [4] has as its target T2, type 2 human 5α-reductase (HRED2) (Homo sapiens, UniProt P31213).
T2 sequence (P31213 1-254): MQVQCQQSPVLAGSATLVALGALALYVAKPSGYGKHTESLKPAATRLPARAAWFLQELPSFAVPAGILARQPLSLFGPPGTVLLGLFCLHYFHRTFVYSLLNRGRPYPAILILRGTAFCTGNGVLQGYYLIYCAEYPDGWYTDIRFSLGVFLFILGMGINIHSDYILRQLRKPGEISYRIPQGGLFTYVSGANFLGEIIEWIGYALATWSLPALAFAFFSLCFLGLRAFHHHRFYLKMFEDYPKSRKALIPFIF
The assay is described as follows: Whole cell assay of 5α-reductase, type 2 isoenzyme.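 Note: intact rat 1A cells genetically modified to carry human type 2 5α-reductase served as the enzyme source.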 The assay is classed as cell-based. Further details: expressed in transfected cells; host or cells: rat 1A cells infected with pMV7 retrovirus.

The nature of assay [5]: Body and organ weight loss. Conditions: compared with ECG. Type of assay: in vivo. As for the experimental part:
By way of example, male Sprague-Dawley rats (body weight 180 g±10 g) are used. Compounds are intraperitoneally injected into rats in one group each day for 7 days. Rats in the control group receive 0.1 ml 30% ethanol. Body and organ weights are determined.

The subject of assay [6] is 5α-reductases isozyme 2 and isozyme 1. As to conditions: Russell and Wilson, 1994; cited from earlier work.
Assay [7] concerns the target T2, type 2 human 5α-reductase (HRED2). The assay is described as follows: Cell free assay of 5α-reductase, microsomes of rat 1A cells expressing type 2 isoenzyme (HRED2).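 Note: labeled testosterone and its product dihydrotestosterone measured in microsomal reaction extracts via thin layer chromatography plus radioanalytic scanning.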 The assay is classed as biochemical. On the set-up: expressed in transfected cells; host or cells: rat 1A cells infected with pMV7 retrovirus; microsomes.

Where “and” joins values, the source holds several entries; their conditions need not be identical. Equal values may be shown once.

Broadly, the IC50 is the concentration needed to halve the response being measured. The term inhibition denotes the relative decrease from the control value, in per cent.

Turning to `O=C(O[C@@H]1Cc2c(O)cc(O)cc2O[C@@H]1c1cc(O)c(O)c(O)c1)c1cc(O)c(O)c(O)c1` [Epigallocatechin Gallate], the “inhibitory activity against type 1 isoenzyme, in words” value in assay [1] (cell-free assay) is “high”. Moreover, in assay [2], the “effect on size of human prostate and breast tumors” value was “surprisingly effective in suppressing and even reducing the size”. In addition, the “inhibitory activity in the whole cell assay, type 1 isoenzyme, in words” value in assay [3] is “low”. Further, the “HRED2 % Inhibition @ 100 μM” value in assay [4] (100 μM, Table 7, listed as EGCG) is 5% and 0%. The “reduction of body weight” value in assay [5] is “significantly more effective”.
As for `CC(C)(C)NC(=O)[C@H]1CC[C@H]2[C@@H]3CC[C@H]4NC(=O)C=C[C@]4(C)[C@H]3CC[C@]12C` [Finasteride], in assay [6], the “affinity for isozyme 2 relative to isozyme 1” value is given as 30 fold.
Take `COc1cc(CCC(=O)CC(=O)CCc2ccc(O)c(OC)c2)ccc1O` [Tetrahydrocurcumin]: the IC50 in assay [1] (cell free assay, Table 3 curcumin and related compounds, read-out: HRED1 IC50) amounted to 80 µM; in assay [3] (Table 7, read-out: HCRED1 IC50), 36 µM; in assay [4] (Table 7, read-out: HCRED2 IC50), 7 µM; in assay [7] (read-out: HRED2 IC50), 29 µM. The inhibition at 100 µM in assay [1] (read-out: HRED1 % Inhibition @ 100 uM) amounted to 56%; in assay [3] (100 μM, Table 7), 81%; in assay [4] (100 μM, Table 7), 92%; in assay [7] (read-out: HRED2 % Inhibition @ 100 uM) it was 73%.

Source of the values: patent US20030144346A1, “Methods and compositions for regulation of 5-alpha reductase activity” (priority 1997, published 2003).
